Data published in patent US20250281479A1, “TREATMENT OF CAVERNOUS ANGIOMAS WITH A 4-SUBSTITUTED PIPERIDINE DERIVATIVE” (Neurelis, Inc., priority 2024, published 2025).
Like-named read-outs stand apart in the source and are kept apart here.

Experiments:
[1] = test system: mouse, monkey, and human hepatocytes; assay: incubation with hepatocytes (mouse, monkey, human); assay type: in vitro ADME
Experimental: (§1) Exposure to NRL-2017 was similar or greater (up to 5-fold) than that to NRL-1049 in rats when dosed once a day (QD). In monkeys, exposure to NRL-2017 was also greater (up to 33-fold) than that to NRL-1049. When rats were dosed twice a day (BID) for 14 days, there was a decrease in formation of NRL-2017 with exposure to NRL-2017 lower than that of NRL-1049 (ratio as low as 0.06). […] NRL-1049 bound to human serum albumin and human alpha1-acid glycoprotein. […] There was also inhibition of P-glycoprotein (P-gp) (only CACO-2 cells), organic anion transporting polypeptides (OATP) OATP1B1, OATP1B3 and OAT3 (IC50, >100 μM), but no effect on P-gp (MDCK2 cells), breast cancer resistance protein (BCRP), bile salt export pump (BSEP), or MATE2-K. NRL-1049 is a substrate for P-gp, not BCRP. […] This conclusion will be revisited when human pharmacokinetic (PK) data becomes available.

rat hepatocytes = assay: incubation with rat hepatocytes; assay type: in vitro ADME; conditions: two metabolites formed, NRL-2017 and an N-oxide
Experimental: as §1

[2] = tissue distribution and excretion; assay type: in vivo
Experimental: as §1

plasma protein binding = assay type: in vitro ADME, mouse; conditions: range over mouse, rat, dog, monkey, minipig and human plasma; read-out: % free drug
Experimental: as §1

plasma protein = plasma protein binding; assay type: in vitro ADME, mouse; conditions: mouse, rat, dog, monkey, minipig and human plasma
Experimental: as §1

CYP2D6 [3] = molecular target: T1, CYP2D6 (Homo sapiens, UniProt P10635); assay: CYP isozyme mediating metabolism; assay type: in vitro ADME
Experimental: as §1

CYP2C8 = CYP2C8 (Homo sapiens, UniProt P10632); assay: CYP inhibition; assay type: in vitro ADME; conditions: read-out: half-maximal inhibitory concentration (IC50)
Experimental: as §1

CYP2D6 [4] = molecular target: T1, CYP2D6; assay: CYP inhibition; assay type: in vitro ADME; conditions: read-out: half-maximal inhibitory concentration (IC50)
Experimental: as §1

CYP3A4/5 = assay: CYP inhibition; assay type: in vitro ADME; conditions: human
Experimental: as §1

cytochrome P450 (CYP) = assay: metabolite or time-dependent CYP inhibition; assay type: in vitro ADME
Experimental: as §1

CYP2B2 = assay: CYP expression in hepatocyte culture; assay type: in vitro ADME; conditions: at concentrations as low as 3.2 μM
Experimental: as §1

MATE2-K = MATE2-K (Homo sapiens, UniProt Q86VL8); assay type: in vitro ADME
Experimental: as §1

BCRP = BCRP (Homo sapiens, UniProt Q9UNQ0); assay: transporter substrate assessment; assay type: in vitro ADME
Experimental: as §1

P-gp = P-gp (Homo sapiens, UniProt P08183); assay: transporter substrate assessment; assay type: in vitro ADME
Experimental: as §1

T1 sequence (P10635 whole entry): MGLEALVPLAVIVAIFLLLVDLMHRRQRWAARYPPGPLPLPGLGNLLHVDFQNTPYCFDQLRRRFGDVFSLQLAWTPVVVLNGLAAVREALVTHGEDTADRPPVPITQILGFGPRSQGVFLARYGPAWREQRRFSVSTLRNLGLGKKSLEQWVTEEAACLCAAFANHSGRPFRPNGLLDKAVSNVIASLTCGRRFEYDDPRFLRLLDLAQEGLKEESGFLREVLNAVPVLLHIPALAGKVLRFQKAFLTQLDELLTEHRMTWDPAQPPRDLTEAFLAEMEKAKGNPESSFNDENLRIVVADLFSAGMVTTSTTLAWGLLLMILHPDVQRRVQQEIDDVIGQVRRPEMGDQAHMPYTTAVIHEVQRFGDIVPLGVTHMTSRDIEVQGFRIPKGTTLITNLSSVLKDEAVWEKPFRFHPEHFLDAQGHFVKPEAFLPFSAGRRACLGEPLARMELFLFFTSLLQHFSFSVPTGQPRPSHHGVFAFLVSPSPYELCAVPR
Sequence of P-gp (P08183 whole entry): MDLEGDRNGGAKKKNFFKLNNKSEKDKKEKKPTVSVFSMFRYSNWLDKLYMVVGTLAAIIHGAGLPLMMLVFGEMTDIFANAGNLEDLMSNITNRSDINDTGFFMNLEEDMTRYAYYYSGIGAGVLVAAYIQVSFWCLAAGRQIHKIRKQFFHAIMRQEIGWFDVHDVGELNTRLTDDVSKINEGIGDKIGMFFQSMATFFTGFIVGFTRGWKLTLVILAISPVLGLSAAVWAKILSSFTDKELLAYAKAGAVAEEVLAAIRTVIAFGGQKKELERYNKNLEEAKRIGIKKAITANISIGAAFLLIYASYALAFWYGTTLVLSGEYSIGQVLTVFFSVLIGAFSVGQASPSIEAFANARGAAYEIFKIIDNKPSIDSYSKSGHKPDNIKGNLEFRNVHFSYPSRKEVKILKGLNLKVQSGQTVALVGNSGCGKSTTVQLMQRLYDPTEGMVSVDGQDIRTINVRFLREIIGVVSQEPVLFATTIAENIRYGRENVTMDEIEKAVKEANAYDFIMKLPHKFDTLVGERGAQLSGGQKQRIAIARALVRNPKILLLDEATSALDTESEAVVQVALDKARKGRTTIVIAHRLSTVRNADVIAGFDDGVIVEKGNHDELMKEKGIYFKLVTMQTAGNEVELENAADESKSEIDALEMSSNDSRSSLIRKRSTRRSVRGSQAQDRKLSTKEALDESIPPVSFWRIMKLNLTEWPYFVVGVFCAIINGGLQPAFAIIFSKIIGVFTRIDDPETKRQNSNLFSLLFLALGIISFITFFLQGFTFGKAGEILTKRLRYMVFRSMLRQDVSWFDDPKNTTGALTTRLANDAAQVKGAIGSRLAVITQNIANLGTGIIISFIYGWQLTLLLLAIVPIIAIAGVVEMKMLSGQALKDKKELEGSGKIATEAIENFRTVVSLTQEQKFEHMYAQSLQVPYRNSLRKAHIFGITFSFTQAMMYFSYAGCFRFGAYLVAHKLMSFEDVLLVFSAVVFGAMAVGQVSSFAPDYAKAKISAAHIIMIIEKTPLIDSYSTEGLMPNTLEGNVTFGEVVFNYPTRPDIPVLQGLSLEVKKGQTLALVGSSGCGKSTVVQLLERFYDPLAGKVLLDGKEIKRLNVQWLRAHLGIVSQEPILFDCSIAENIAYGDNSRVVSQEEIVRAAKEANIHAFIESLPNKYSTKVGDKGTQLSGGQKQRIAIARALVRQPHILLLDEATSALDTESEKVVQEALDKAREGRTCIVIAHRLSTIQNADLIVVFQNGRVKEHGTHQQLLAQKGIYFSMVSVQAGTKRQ
Sequence of CYP2C8 (P10632 whole entry): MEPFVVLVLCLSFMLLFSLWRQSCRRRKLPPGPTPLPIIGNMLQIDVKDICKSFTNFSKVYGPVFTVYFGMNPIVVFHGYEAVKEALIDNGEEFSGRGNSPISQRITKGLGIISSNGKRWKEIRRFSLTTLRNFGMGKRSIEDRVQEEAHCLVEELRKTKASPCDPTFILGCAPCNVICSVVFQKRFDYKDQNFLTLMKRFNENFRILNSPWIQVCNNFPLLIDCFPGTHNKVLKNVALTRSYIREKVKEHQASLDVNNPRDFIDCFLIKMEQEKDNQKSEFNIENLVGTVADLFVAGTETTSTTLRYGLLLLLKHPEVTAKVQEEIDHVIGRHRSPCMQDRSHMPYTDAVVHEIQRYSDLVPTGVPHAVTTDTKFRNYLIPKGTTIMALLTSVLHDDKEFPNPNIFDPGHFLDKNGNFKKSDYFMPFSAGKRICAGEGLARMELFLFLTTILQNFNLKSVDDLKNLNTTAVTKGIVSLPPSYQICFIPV
Sequence of BCRP (Q9UNQ0 whole entry): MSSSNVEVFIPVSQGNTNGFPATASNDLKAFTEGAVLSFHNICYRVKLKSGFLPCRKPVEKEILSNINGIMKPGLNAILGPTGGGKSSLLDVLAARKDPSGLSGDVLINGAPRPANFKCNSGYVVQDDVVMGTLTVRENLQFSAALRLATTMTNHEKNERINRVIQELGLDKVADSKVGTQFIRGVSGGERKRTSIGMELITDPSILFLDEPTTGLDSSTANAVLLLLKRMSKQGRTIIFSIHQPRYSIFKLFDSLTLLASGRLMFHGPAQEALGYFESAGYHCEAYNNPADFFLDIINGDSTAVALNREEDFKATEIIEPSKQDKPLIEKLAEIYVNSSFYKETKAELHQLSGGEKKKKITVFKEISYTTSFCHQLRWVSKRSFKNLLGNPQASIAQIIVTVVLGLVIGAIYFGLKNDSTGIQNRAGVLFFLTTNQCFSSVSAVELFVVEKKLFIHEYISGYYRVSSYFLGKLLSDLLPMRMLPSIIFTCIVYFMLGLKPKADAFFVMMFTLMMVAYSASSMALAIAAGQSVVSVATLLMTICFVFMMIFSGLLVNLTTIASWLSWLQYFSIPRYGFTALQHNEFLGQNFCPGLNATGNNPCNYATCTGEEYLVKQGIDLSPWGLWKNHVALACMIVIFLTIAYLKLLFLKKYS
Sequence of MATE2-K (Q86VL8 1-566 isoform Q86VL8-3): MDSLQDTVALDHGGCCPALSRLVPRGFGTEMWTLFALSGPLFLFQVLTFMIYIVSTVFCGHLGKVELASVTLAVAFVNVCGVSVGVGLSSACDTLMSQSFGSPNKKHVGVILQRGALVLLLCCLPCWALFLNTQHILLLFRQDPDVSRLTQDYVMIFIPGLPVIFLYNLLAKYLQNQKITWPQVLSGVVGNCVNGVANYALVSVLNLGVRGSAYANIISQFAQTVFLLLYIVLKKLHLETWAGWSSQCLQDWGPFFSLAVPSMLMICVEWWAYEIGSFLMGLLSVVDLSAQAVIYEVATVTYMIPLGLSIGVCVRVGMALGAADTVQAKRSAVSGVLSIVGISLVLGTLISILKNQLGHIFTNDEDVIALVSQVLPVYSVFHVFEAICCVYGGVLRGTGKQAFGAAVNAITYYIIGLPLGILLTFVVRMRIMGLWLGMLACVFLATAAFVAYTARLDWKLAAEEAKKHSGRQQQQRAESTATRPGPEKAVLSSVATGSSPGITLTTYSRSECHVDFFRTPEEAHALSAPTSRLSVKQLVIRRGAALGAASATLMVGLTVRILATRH

C[C@@H](N)C1CCN(S(=O)(=O)c2cccc3cnccc23)CC1 [NRL-1049]
clearance in hepatocytes [1]: moderate to high clearance | clearance rate in hepatocytes (rat hepatocytes): moderate | tissue distribution ([2]; brain, aorta, inferior vena cava): distributed to brain and vascular tissue | excretion ([2]; in vivo): excreted in urine | fraction unbound (plasma protein binding): 0.541 to 0.706 | plasma protein binding (plasma protein): low to moderate | metabolism by CYP2D6 (CYP2D6 [3]): primarily mediated | IC50 (CYP2C8): 160 µM | IC50 (CYP2D6 [4]): 0.18 µM | IC50 (CYP3A4/5; first of the two values printed 23/110, read-out: half-maximal inhibitory concentration (IC50)): 23 µM | IC50 (CYP3A4/5; second of the two values printed 23/110, read-out: half-maximal inhibitory concentration (IC50)): 110 µM | metabolite or time-dependent inhibition (cytochrome P450 (CYP)): no metabolite or time-dependent inhibition | reduced expression of CYP2B2 (CYP2B2): 0.5 fold | effect on transporter (MATE2-K): no effect | substrate for BCRP (BCRP): not BCRP | substrate for P-gp (P-gp): substrate
